Reference: PubChem BioAssay AID330 (DTP/NCI, 2004)
Where “and” joins values, the source holds several entries; their conditions need not be identical. Equal values may be shown once. Toxic doses and inconclusive results are not listed.

Tested on: P388 leukemia ip, CD2F1 mice, survival T/C
Assay: NCI In Vivo Anticancer Drug Screen. Data for tumor model P388 Leukemia (intraperitoneal) in CD2F1 (CDF1) mice
Conditions: endpoint: median survival time, higher = longer survival
Summary of the method: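 Mice carrying the transplanted tumor received test compound or vehicle. Survival was recorded in each group, and the value is the treated-group measurement divided by that of the vehicle-treated control group.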

[1] = dose: 100.0 mg/kg/injection, schedule: Q04DX003 (ip), vehicle: Klucel (hydroxypropylcellulose) (HPC)
[2] = dose: 200.0 mg/kg/injection, schedule: Q04DX003 (ip), vehicle: Klucel (hydroxypropylcellulose) (HPC)
[3] = dose: 60.0 mg/kg/injection, schedule: Q01DX005 (ip), vehicle: Klucel (hydroxypropylcellulose) (HPC)
[4] = dose: 120.0 mg/kg/injection, schedule: Q01DX005 (ip), vehicle: Klucel (hydroxypropylcellulose) (HPC)
[5] = dose: 240.0 mg/kg/injection, schedule: Q01DX005 (ip), vehicle: Klucel (hydroxypropylcellulose) (HPC)
[6] = dose: 50.0 mg/kg/injection, schedule: Q01DX009 (ip), vehicle: saline with Tween-80
[7] = dose: 100.0 mg/kg/injection, schedule: Q01DX009 (ip), vehicle: saline with Tween-80
[8] = dose: 200.0 mg/kg/injection, schedule: Q01DX009 (ip), vehicle: saline with Tween-80
[9] = dose: 50.0 mg/kg/injection, schedule: Q01DX005 (ip), vehicle: saline with Tween-80
[10] = dose: 100.0 mg/kg/injection, schedule: Q01DX005 (ip), vehicle: saline with Tween-80
[11] = dose: 200.0 mg/kg/injection, schedule: Q01DX005 (ip), vehicle: saline with Tween-80
[12] = dose: 50.0 mg/kg/injection, schedule: Q01DX009 (ip), vehicle: Klucel (hydroxypropylcellulose) (HPC)
[13] = dose: 100.0 mg/kg/injection, schedule: Q01DX009 (ip), vehicle: Klucel (hydroxypropylcellulose) (HPC)
[14] = dose: 200.0 mg/kg/injection, schedule: Q01DX009 (ip), vehicle: Klucel (hydroxypropylcellulose) (HPC)
[15] = dose: 100.0 mg/kg/injection, schedule: Q04DX003 (ip), vehicle: saline with Tween-80
[16] = dose: 200.0 mg/kg/injection, schedule: Q04DX003 (ip), vehicle: saline with Tween-80
[17] = dose: 60.0 mg/kg/injection, schedule: Q01DX005 (ip), vehicle: saline with Tween-80
[18] = dose: 120.0 mg/kg/injection, schedule: Q01DX005 (ip), vehicle: saline with Tween-80
[19] = dose: 240.0 mg/kg/injection, schedule: Q01DX005 (ip), vehicle: saline with Tween-80
[20] = dose: 50.0 mg/kg/injection, schedule: Q01DX005 (ip), vehicle: Klucel (hydroxypropylcellulose) (HPC)
[21] = dose: 100.0 mg/kg/injection, schedule: Q01DX005 (ip), vehicle: Klucel (hydroxypropylcellulose) (HPC)
[22] = dose: 200.0 mg/kg/injection, schedule: Q01DX005 (ip), vehicle: Klucel (hydroxypropylcellulose) (HPC)
[23] = dose: 50.0 mg/kg/injection, schedule: Q01DX009 (ip), vehicle: saline
[24] = dose: 100.0 mg/kg/injection, schedule: Q01DX009 (ip), vehicle: saline
[25] = dose: 200.0 mg/kg/injection, schedule: Q01DX009 (ip), vehicle: saline

`COc1ccc(C(=O)N=C(N)n2nc(C)cc2C)cc1` was tested, and the T/C [1] was 90 % of control, the T/C [2] was 101 % of control and the T/C (dose: 400.0 mg/kg/injection, schedule: Q04DX003 (ip), vehicle: Klucel (hydroxypropylcellulose) (HPC)) was 94 % of control.

With `COc1cccc(C2c3cc4c(cc3OC(C)(O)C2C)OCO4)c1OC` (stereo not given) the T/C [3] was 103 % of control, the T/C [4] was 97 % of control and the T/C [5] was 95 % of control.

`CC1=NN(C(=O)c2ccncc2)C(=O)C1N=Nc1c(C)n(C)n(-c2ccccc2)c1=O` (stereo not given) was tested, and the T/C [6] was 102 % of control, the T/C [7] was 101 % of control and the T/C [8] was 99 % of control.

`COc1ccc(N=Nc2c(C)nn(C(=S)S)c2C)cc1` was tested, and the T/C [9] was 113 % of control, the T/C [10] was 101 % of control and the T/C [11] was 106 % of control.

`CCOC(=O)c1ccccc1SC(C[N+](=O)[O-])c1ccccc1` (stereo not given) was tested, and the T/C [12] was 105 % of control, the T/C [13] was 110 % of control and the T/C [14] was 110 % of control.

For `C=CCN(CC=C)CCSC(=S)NCCOC`, the T/C [15] was 100 % of control and the T/C [16] was 95 % of control.

With `CN(C)C(n1cc2c(c1)-c1ccc(Cl)cc1C(c1ccccc1F)=NC2)n1cc2c(c1)-c1ccc(Cl)cc1C(c1ccccc1F)=NC2` the T/C [17] was 93 % of control, the T/C [18] was 92 % of control and the T/C [19] was 91 % of control.

With `Cc1cc2c(c(O)cc(=O)n2Cc2ccccc2)c(=O)n1Cc1ccccc1` the T/C [20] was 102 % of control, the T/C [21] was 94 % of control and the T/C [22] was 100 % of control.

With `O=C(CNCCCCNCCCNCC(=O)C(O)C(O)C(O)CO)C(O)C(O)C(O)CO` (stereo not given) the T/C (dose: 30.0 mg/kg/injection, schedule: Q01DX005 (ip), vehicle: saline) was 104 % of control and the T/C (dose: 60.0 mg/kg/injection, schedule: Q01DX005 (ip), vehicle: saline) was 101 % of control.

In the case of `O=[N+]([O-])c1ccc(C2OC(c3ccncc3)=NC2CO)cc1` (stereo not given), the T/C [23] is reported as 97 % of control, the T/C [24] is reported as 91 % of control and the T/C [25] is reported as 106 % of control.

`O=C1C2=C(Nc3cc([N+](=O)[O-])ccc3N2)OC1c1ccc(Cl)cc1Cl` (stereo not given) was tested, and the T/C (dose: 30.0 mg/kg/injection, schedule: Q01DX005 (ip), vehicle: Klucel (hydroxypropylcellulose) (HPC)) was 101 % of control, the T/C [3] was 89 % of control and 94 % of control and the T/C [4] was 99 % of control. For the same compound, the T/C [5] was 111 % of control.

For `CC1(C)Nc2cc3c(cc2-n2cccc21)oc1ccccc13`, the T/C (dose: 12.5 mg/kg/injection, schedule: Q01DX005 (ip), vehicle: Klucel (hydroxypropylcellulose) (HPC)) was 111 % of control, the T/C (dose: 25.0 mg/kg/injection, schedule: Q01DX005 (ip), vehicle: Klucel (hydroxypropylcellulose) (HPC)) was 99 % of control and the T/C (dose: 50.0 mg/kg/injection, schedule: Q01DX005 (ip), vehicle: DMSO) was 100 % of control. For the same compound, the T/C [20] was 105 % of control, the T/C (dose: 100.0 mg/kg/injection, schedule: Q01DX005 (ip), vehicle: DMSO) was 95 % of control and the T/C [21] was 101 % of control. The T/C (dose: 200.0 mg/kg/injection, schedule: Q01DX005 (ip), vehicle: DMSO) was 96 % of control, the T/C [22] was 111 % of control and the T/C (dose: 400.0 mg/kg/injection, schedule: Q01DX005 (ip), vehicle: DMSO) was 100 % of control. For the same compound, the T/C (dose: 800.0 mg/kg/injection, schedule: Q01DX005 (ip), vehicle: DMSO) was 98 % of control.

`[CH3][Sn]([c]1ccccc1)([c]1cccc2ccccc12)[c]1cccc2ccccc12` was tested, and the T/C [15] was 89 % of control, the T/C [16] was 91 % of control and the T/C (dose: 400.0 mg/kg/injection, schedule: Q04DX003 (ip), vehicle: saline with Tween-80) was 88 % of control.

For `C=CCOC(=O)C(NC(=O)OCCCC)NC(=O)OCCCC`, the T/C [9] was 103 % of control, the T/C [10] was 100 % of control and the T/C [11] was 98 % of control.

`COc1cc2c(cc1C(C)c1ccc(Cl)cc1)OCO2` (stereo not given) was tested, and the T/C [9] was 99 % of control, the T/C [10] was 108 % of control and the T/C [11] was 101 % of control.

In the case of `Cc1ccc2c(N(CCCl)CCCl)cc(-c3ccccc3)nc2n1`, the T/C (dose: 50.0 mg/kg/injection, schedule: Q04DX003 (ip), vehicle: Klucel (hydroxypropylcellulose) (HPC)) is reported as 98 % of control, the T/C [1] is reported as 100 % of control and the T/C [2] is reported as 99 % of control.

`CC(=O)NCCn1ccnc1` was tested, and the T/C [23] was 95 % of control, the T/C [24] was 102 % of control and the T/C [25] was 102 % of control.

`COc1cc(OC)c(OC)cc1/C=C\c1nccc2ccccc12` was tested, and the T/C [6] was 99 % of control, the T/C [7] was 96 % of control and the T/C [8] was 96 % of control.

`OC1OC2CCC3C2C2C1C1C4CCC5OC(O)C6C3C2C1C6C54` (stereo not given) was tested, and the T/C (dose: 20.0 mg/kg/injection, schedule: Q01DX005 (ip), vehicle: saline with Tween-80) was 97 % of control, the T/C (dose: 40.0 mg/kg/injection, schedule: Q01DX005 (ip), vehicle: saline with Tween-80) was 100 % of control and the T/C (dose: 80.0 mg/kg/injection, schedule: Q01DX005 (ip), vehicle: saline with Tween-80) was 100 % of control.

In the case of `Nc1[nH]c(=S)nc2nc[nH]c12`, the T/C (dose: 6.25 mg/kg/injection, schedule: Q01DX005 (ip), vehicle: saline with Tween-80) is reported as 103 % of control and the T/C (dose: 12.5 mg/kg/injection, schedule: Q01DX005 (ip), vehicle: saline with Tween-80) is reported as 100 % of control.

In the case of `C1=CC2OC1c1cc3c(cc12)[C@@H]1C=C[C@@H]3O1`, the T/C [9] is reported as 96 % of control, the T/C [10] is reported as 105 % of control and the T/C [11] is reported as 91 % of control.

With `NS(=O)(=O)c1ccc(NC(=O)CN(C(=O)C(F)(F)F)C2CCCC2)cc1` the T/C [12] was 113 % of control, the T/C [13] was 109 % of control and the T/C [14] was 109 % of control.

With `CCCCCCCS(=O)(=O)OCCCCOS(=O)(=O)CCCCCCC` the T/C (dose: 45.0 mg/kg/injection, schedule: Q01DX005 (ip), vehicle: acetone) was 99 % of control, the T/C (dose: 90.0 mg/kg/injection, schedule: Q01DX005 (ip), vehicle: acetone) was 100 % of control and the T/C (dose: 180.0 mg/kg/injection, schedule: Q01DX005 (ip), vehicle: acetone) was 99 % of control.

In the case of `CC(C)CC(NC1=CC(=O)N(c2ccccc2)C1c1ccccc1)c1nc2ccccc2[nH]1` (stereo not given), the T/C [20] is reported as 99 % of control, the T/C [21] is reported as 95 % of control and the T/C [22] is reported as 95 % of control.

`NCCc1ccc(N)cc1` was tested, and the T/C [23] was 100 % of control and 105 % of control, the T/C [24] was 100 % of control and 96 % of control and the T/C [25] was 86 % of control.

In the case of `CCOC(=O)c1cn2ccccc2c(C(C)=O)c1=N`, the T/C (dose: 100.0 mg/kg/injection, schedule: Q04DX003 (ip), vehicle: saline) is reported as 100 % of control, the T/C (dose: 200.0 mg/kg/injection, schedule: Q04DX003 (ip), vehicle: saline) is reported as 100 % of control and the T/C (dose: 400.0 mg/kg/injection, schedule: Q04DX003 (ip), vehicle: saline) is reported as 94 % of control.

`NC(=S)c1sc(-c2ccccc2)cc1N` was tested, and the T/C [3] was 108 % of control, the T/C [4] was 106 % of control and the T/C [5] was 104 % of control.

For `CCOC(=O)c1c(=O)[nH]c(=O)n2c1[nH]c1ccccc12`, the T/C [17] was 93 % of control, the T/C [18] was 91 % of control and the T/C [19] was 90 % of control.

In the case of `O=[N+]([O-])c1cccc2c(-c3nccc4c([N+](=O)[O-])cccc34)nccc12`, the T/C [9] is reported as 87 % of control and the T/C [10] is reported as 87 % of control.

With `CCc1cccc(CC)c1N1C(=O)CSCC1=O` the T/C [23] was 99 % of control, the T/C [24] was 93 % of control and the T/C [25] was 100 % of control.

With `Cc1cc(NN=O)nc(C)n1` the T/C (dose: 3.12 mg/kg/injection, schedule: Q01DX009 (ip), vehicle: water) was 98 % of control, the T/C (dose: 6.25 mg/kg/injection, schedule: Q01DX009 (ip), vehicle: water) was 98 % of control and the T/C (dose: 12.5 mg/kg/injection, schedule: Q01DX009 (ip), vehicle: water) was 98 % of control. The T/C (dose: 25.0 mg/kg/injection, schedule: Q01DX009 (ip), vehicle: water) was 100 % of control and 101 % of control, the T/C (dose: 50.0 mg/kg/injection, schedule: Q01DX009 (ip), vehicle: water) was 104 % of control and 106 % of control and the T/C (dose: 200.0 mg/kg/injection, schedule: Q01DX009 (ip), vehicle: water) was 166 % of control.
